The target of series [1] is T1, DHFR partially purified from rat liver (Rattus norvegicus, UniProt Q920D2).
T1 construct: DHFR partially purified from rat liver; from tissue; host or cells: rat liver
T1 sequence (Q920D2 1-187): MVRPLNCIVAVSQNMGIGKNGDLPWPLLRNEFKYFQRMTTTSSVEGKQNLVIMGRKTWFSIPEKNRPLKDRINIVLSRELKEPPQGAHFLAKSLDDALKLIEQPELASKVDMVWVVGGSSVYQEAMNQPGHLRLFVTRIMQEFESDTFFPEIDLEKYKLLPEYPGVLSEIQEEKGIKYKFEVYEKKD
Description: Inhibition of mammalian dihydrofolate reductase (DHFR). It is filed as biochemical. As to the method: The inhibitory effect of the test compounds against DHFR partially purified from rat liver was determined.

Series [2] has as its target Histamine N-methyl-transferase ( HMT ) (Homo sapiens, UniProt P50135). In words: Inhibition of histamine N-methyltransferase (HMT). It is filed as biochemical. The following applies: read-out: % inhibition of HMT at 10^-5M. The protocol:
EXAMPLE 4 Inhibition of Histamine N-methyl-transferase ( HMT ) by 2,4-Diamino-6-benzylpyrido(2,3-d)pyrimidine
The effect of the test compounds used in Example 3 against HMT was determined. An inhibition of less than 20% was considered acceptable and the lack of any effect on this enzyme is most desirable since any interference with histamine metabolism should be minimized.

Series [3] concerns Leukemia P388 cells. Description: Antileukemic effect on intraperitoneally inoculated P388 leukemia in mice. It is filed as in vivo, CDF, Charles River female mice. The following applies: for antileukemic activity: mice, 22, 33.5, 50 and 75 mg/kg, same schedule (twice daily for three days); for % increases in life span: mice. The text has this:
Leukemia P388 cells were inoculated intraperitoneally in CDF, Charles River female mice, each animal receiving 10^6 cells. On the second day after implantation with the leukemic cells, drug treatment was commenced and continued twice daily for three days.

The test system of series [4] is Solid Walker 256 tumors. Description: Antitumor effect on subcutaneously implanted Walker 256 tumors in rats. It is filed as in vivo. The following applies: for mean tumor volume as % of the untreated group: after 17 days. As to the method: Solid Walker 256 tumors were implanted subcutaneously into three groups of rats. On the third day after implantation with the tumors drug treatment was commenced and continued for 5 successive days. One group of rats was treated with 2,4-diamino-6-(2,5-dimethoxybenzyl)-5-methylpyrido(2,3-d) pyrimidine at a dose of 25mg/kg q.i.d., a second group was treated with the same compound at 15 mg/kg b.i.d.; the third group were left untreated as controls.
In a second study tumors were implanted subcutaneously and drug treatment delayed until 10 days after implantation. Drug treatment consisted of 30 mg/kg q.i.d. on days 10-13 and 50 mg/kg on days 20, 24 and 28 after tumor implantation. Mean tumor volumes were measured during the course of this study. […] Twenty-three days after tumor implantation T/C was 0.03.

Series [5] can be described thus: Acute toxicity in mice (i.p.). The following applies: mouse, in vivo, ip. As to the method: The acute toxicity of the title compounds was determined in mice ( i.p. ). The following results were obtained:-

The record followed here is EP0021292A1, “Alkoxybenzylpyridopyrimidines, methods for their preparation and pharmaceutical formulations thereof” (THE WELLCOME FOUNDATION LIMITED, priority 1979, dated 1981).

SMILES strings stand for the structures.

As usually defined, the IC50 is the concentration at which inhibition is half-maximal. Lower therefore signals higher potency. The inhibition is the drop in the measured response relative to a control, in per cent. As a reminder, the LD50 is the dose at which mortality reaches 50%. Read a low LD50 as a more toxic substance.

Chain of Histamine N-methyl-transferase ( HMT ) (P50135 whole entry, species assumed): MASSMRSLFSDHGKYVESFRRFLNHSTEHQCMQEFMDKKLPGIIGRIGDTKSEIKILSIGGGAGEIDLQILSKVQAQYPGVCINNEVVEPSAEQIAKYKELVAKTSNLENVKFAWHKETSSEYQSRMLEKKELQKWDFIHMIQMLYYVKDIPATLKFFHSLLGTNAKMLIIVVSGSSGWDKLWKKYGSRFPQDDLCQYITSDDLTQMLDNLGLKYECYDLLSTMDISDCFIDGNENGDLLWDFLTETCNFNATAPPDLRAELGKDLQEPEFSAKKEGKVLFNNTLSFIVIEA

`Nc1nc(N)c2cc(Cc3ccccc3)cnc2n1`: the midpoint of inhibition in series [1], the IC50, lay at 250 nM. Moreover, in series [2], the inhibition at 10 µM is 48%.
For `COc1ccc(Cc2cnc3nc(N)nc(N)c3c2C)cc1OC`, in that order: 7.8 nM and 19%.
Turning to `Cc1ccc(Cc2cnc3nc(N)nc(N)c3c2C)cc1`, the IC50 in series [1] turned out to be 27 nM.
`COc1ccccc1Cc1cnc2nc(N)nc(N)c2c1C`: inhibition in series [1] was half-maximal at 50 nM (IC50). The inhibition at 10 µM in series [2] worked out at 18%.
For `CCc1ccc(Cc2cnc3nc(N)nc(N)c3c2C)cc1`, in that order: 90 nM and 55%.
For the compound `COc1ccc(Cc2cnc3nc(N)nc(N)c3c2C)cc1`, the antileukemic activity entry in series [3] was “inactive at all doses”.
For `COc1ccc(OC)c(Cc2cnc3nc(N)nc(N)c3c2C)c1` [2,4-Diamino-5-methyl-6-(2,5-dimethoxybenzyl)pyrido-(2,3-d)pyrimidine)], the entries for the “mean tumor volume as % of the untreated group” value in series [4] (15 mg/kg b.i.d. for 5 successive days from third day after implantation) and in series [4] (25mg/kg q.i.d. for 5 successive days from third day after implantation) were 10% and 29%, respectively. For the same compound, the “mean tumor volume during the period of observation” value in series [4] (second study, 30 mg/kg q.i.d. on days 10-13 and 50 mg/kg on days 20, 24 and 28) is on record as “decrease in mean tumor volume”. The compound also had a T/C in series [4] (second study, 30 mg/kg q.i.d. on days 10-13 and 50 mg/kg on days 20, 24 and 28, twenty-three days after tumor implantation) of 0.03. The “% increases in life span” value in series [3] (22 mg/kg twice daily for three days from second day) was determined as 145%; in series [3] (33.5 mg/kg twice daily for three days from second day), 159%; in series [3] (50 mg/kg twice daily for three days from second day) it was 140%; in series [3] (75 mg/kg twice daily for three days from second day), 154%. Also, the drug-related toxicity result in series [3] (mice, 22, 33.5, 50 and 75 mg/kg twice daily for three days) was “no evidence of drug-related toxicity”. Also, in series [5], the 50% lethal dose (LD50) is around 500 mg/kg.
For the compound `Cc1c(Cc2ccccc2Cl)cnc2nc(N)nc(N)c12` [2-chlorobenzyl compound], in series [3], the antileukemic activity entry is on record as “only marginal or slight activity”.
`Cc1c(Cc2ccccc2)cnc2nc(N)nc(N)c12` [-CH2 Ph] showed an IC50 in series [1] of 40 nM. Besides, the inhibition at 10 µM in series [2] was determined as 51%.
For `Cc1c(Cc2ccccc2Cl)cnc2nc(N)nc(N)c12` [the 1st table, row 5], in that order: 16 nM and 59%.
For `COc1ccc(Cc2cnc3nc(N)nc(N)c3c2C)cc1` [the 1st table, row 8], in that order: 53 nM and 20%.
With `COc1ccc(OC)c(Cc2cnc3nc(N)nc(N)c3c2C)c1` [the 1st table, row 11], the inhibition at 10 µM in series [2] was determined as 11%.
